Experiments:
Type in all cases: in vivo
[1] = tested on: Myzus persicae (Green Peach Aphid); test: Activity against Myzus persicae, roots of infested pea seedlings in test solution; conditions: 144 h, test rate of 24 ppm, 6 days
Protocol: Example B6: Activity Against Myzus persicae (Green Peach Aphid)
Roots of pea seedlings infested with an aphid population of mixed ages were placed directly in the aqueous test solutions prepared from 10′000 DMSO stock solutions. The samples were assessed for mortality 6 days after placing seedlings in test solutions.

[2] = tested on: Thrips tabaci (Onion Thrips); test: Activity against Thrips tabaci, feeding/contact activity; conditions: foliar, 144 h, application rate of 200 ppm, thrips population of mixed ages on sunflower leaf discs, 6 days after infestation
Protocol: Example B13: Activity Against Thrips tabaci (Onion Thrips) Feeding/Contact Activity
(§1) Sunflower leaf discs were placed on agar in 24-well microtiter plates and sprayed with aqueous test solutions prepared from 10′000 ppm DMSO stock solutions. After drying the leaf discs were infested with a thrips population of mixed ages. The samples were assessed for mortality 6 days after infestation.

[3] = tested on: Frankliniella occidentalis (Western Flower Thrips); test: Activity against Frankliniella occidentalis, sprayed sunflower leaf discs; conditions: foliar, 168 h, application rate of 200 ppm, population of mixed ages on sunflower leaf discs, 7 days after infestation
Protocol: Example B4: Activity Against Frankliniella occidentalis (Western Flower Thrips)
as §1, with “[…]” for “10′000 ppm”, “Frankliniella” for “thrips”, “7” for “6”

[4] = tested on: Myzus persicae (Green Peach Aphid); test: Activity against Myzus persicae, sprayed sunflower leaf discs; conditions: foliar, 144 h, application rate of 200 ppm, aphid population of mixed ages on sunflower leaf discs, 6 days after infestation
Protocol: Example B5: Activity Against Myzus persicae (Green Peach Aphid)
Sunflower leaf discs were placed on agar in a 24-well microtiter plate and sprayed with aqueous test solutions prepared from 10′000 ppm DMSO stock solutions. After drying, the leaf discs were infested with an aphid population of mixed ages. The samples were assessed for mortality 6 days after infestation.

[5] = tested on: Bemisia tabaci (Cotton White Fly); test: Activity against Bemisia tabaci, sprayed cotton leaf discs; conditions: foliar, 144 h, application rate of 200 ppm, adult white flies on cotton leaf discs, 6 days after incubation
Protocol: Example B1: Activity Against Bemisia tabaci (Cotton White Fly)
Cotton leaf discs were placed on agar in 24-well microtiter plates and sprayed with aqueous test solutions prepared from 10′000 ppm DMSO stock solutions. After drying the leaf discs were infested with adult white flies. The samples were checked for mortality 6 days after incubation. […] A35, A36 and A47. A1. A2, A3, A8, A10, A14 and A12.

[6] = tested on: Aedes aegypti (Yellow Fever Mosquito); test: whole plant or invertebrate; conditions: 48 h, test rate of 5 ppm, L2 larvae in 96-well plates, incubation period of 2 days, read-out: effect in at least one of the two categories (mortality or growth inhibition)
Protocol: Example B14: Activity Against Aedes aegypti (Yellow Fever Mosquito)
10 to 15 Aedes larvae (L2) together with a nutrition mixture were placed in 96-well microtiter plates. Test compounds were pipetted into the wells. After an incubation period of 2 days insects were assessed for mortality and growth inhibition.

[7] = tested on: Diabrotica balteata (Corn Root Worm); test: Activity against Diabrotica balteata, sprayed maize sprouts; conditions: 96 h, application rate of 200 ppm, larvae on maize sprouts, 4 days after infestation
Protocol: Example B2: Activity Against Diabrotica balteata (Corn Root Worm)
Maize sprouts, placed on an agar layer in 24-well microtiter plates were treated with aqueous test solutions prepared from 10′000 ppm DMSO stock solutions by spraying. After drying, the plates were infested with […] (6 to 10 per well). The samples were assessed for mortality 4 days after infestation.

[8] = tested on: Spodoptera littoralis (Egyptian Cotton Leaf Worm); test: Activity against Spodoptera littoralis, sprayed cotton leaf discs; conditions: foliar, 72 h, application rate of 200 ppm, L1 larvae on cotton leaf discs, 3 days after infestation, read-out: control (at least one of mortality, anti-feedant effect, growth inhibition)
Protocol: Example B9: Activity Against Spodoptera littoralis (Egyptian Cotton Leaf Worm)
Cotton leaf discs were placed on agar in 24-well microtiter plates and sprayed with aqueous test solutions prepared from 10′000 ppm DMSO stock solutions. After drying the leaf discs were infested with five L1 larvae. The samples were assessed for mortality, anti-feedant effect, and growth inhibition in comparison to untreated samples 3 days after infestation. Control of Spodoptera littoralis by a test sample is when at least one of mortality, anti-feedant effect, and growth inhibition is higher than the untreated sample.

[9] = tested on: Spodoptera littoralis (Egyptian Cotton Leaf Worm); test: Activity against Spodoptera littoralis, systemic activity; conditions: 144 h, test rate of 12.5 ppm, in agar, lettuce root uptake, 6 days after infestation
From the text: Example B11: Activity Against Spodoptera littoralis (Egyptian Cotton Leaf Worm), Systemic Activity
(§2) Test compounds were applied by pipette from 10′000 ppm DMSO stock solutions into 24-well plates and mixed with agar. Lettuce seeds were placed on the agar and the multi well plate was closed by another plate which contains also agar. After 7 days the roots have absorbed the compound and the lettuce has grown into the lid plate. The lettuce leafs were now cut off into the lid plate. Spodoptera eggs were pipetted through a plastic stencil on a humid gel blotting paper and the plate closed with it. The samples were assessed for mortality 6 days after infestation.

[10] = tested on: Plutella xylostella (Diamond Back Moth); test: Activity against Plutella xylostella, treated artificial diet; conditions: 120 h, application rate of 200 ppm, L2 larvae on artificial diet, 5 days after infestation, read-out: effect in at least one of the two categories (mortality or growth inhibition)
Protocol: Example B8: Activity Against Plutella xylostella (Diamond Back Moth)
24-well microtiter plates with artificial diet were treated with aqueous test solutions prepared from 10′000 ppm DMSO stock solutions by pipetting. After drying, the plates were infested with L2 larvae (10 to 15 per well). The samples were assessed for mortality and growth inhibition in comparison to untreated samples 5 days after infestation.

[11] = tested on: Myzus persicae (Green Peach Aphid); test: Activity against Myzus persicae, sucrose solution under Parafilm; conditions: 120 h, test rate of 12 ppm, mixed with sucrose solution, 5 days after infestation
From the text: Example B7: Activity Against Myzus persicae (Green Peach Aphid)
Test compounds from 10′000 ppm DMSO stock solutions were applied by pipette into 24-well microtiter plates and mixed with sucrose solution. The plates were closed with a stretched Parafilm. A plastic stencil with 24 holes was placed onto the plate and infested pea seedlings were placed directly on the Parafilm. The infested plate was closed with a gel blotting paper and another plastic stencil and then turned upside down. The samples were assessed for mortality 5 days after infestation. […] A30 and A32.

[12] = tested on: Spodoptera littoralis (Egyptian Cotton Leaf Worm); test: Activity against Spodoptera littoralis, compound in agar taken up by lettuce; conditions: 144 h, test rate of 12.5 ppm, lettuce root uptake, 6 days after infestation, read-out: effect in at least one of the three categories (mortality, anti-feedancy, or growth inhibition)
From the text: Example B10: Activity Against Spodoptera littoralis (Egyptian Cotton Leaf Worm)
as §2, with “mortality, anti-feedant effect and growth inhibition in comparison to untreated samples” for “mortality”

[13] = tested on: Euschistus heros (Neotropical Brown Stink Bug); test: Activity against Euschistus heros, sprayed soybean leaf; conditions: 120 h, application rate of 200 ppm, N-2 nymphs on soybean leaf, 5 days after infestation
Protocol: Example B3: Activity Against Euschistus heros (Neotropical Brown Stink Bug)
Soybean leaf on agar in 24-well microtiter plates were sprayed with aqueous test solutions prepared from 10′000 ppm DMSO stock solutions. After drying the leaf were infested with N-2 nymphs. The samples were assessed for mortality 5 days after infestation.

[14] = tested on: Tetranychus urticae (Two-Spotted Spider Mite); test: Activity against Tetranychus urticae, feeding/contact activity; conditions: foliar, 192 h
Protocol: Example B12: Activity Against Tetranychus urticae (Two-Spotted Spider Mite): Feeding/Contact Activity
as §1, with “Bean” for “Sunflower”, “discs” for “discs were placed”, “were” for “and”, “mite” for “thrips”, “on mixed population (mobile stages) 8” for “6”

CCS(=O)(=O)c1cc(C(F)(F)F)cnc1-c1nc2cc(C(F)(F)F)n(C)c(=O)c2n1C [Compound A1, 2-[3-ethylsulfonyl-5-(trifluoromethyl)-2-pyridyl]-3,5-dimethyl-6-(trifluoromethyl)imidazo[4,5-c]pyridin-4-one]
≥ 80%: mortality at 24 ppm [1] | mortality at 200 ppm [2] | mortality at 200 ppm [3] | mortality at 200 ppm [4] | mortality at 200 ppm [5] | percent effect (mortality or growth inhibition) at 5 ppm [6] | mortality at 200 ppm [7] | percent control (mortality, anti-feedant effect or growth inhibition) at 200 ppm [8] | mortality at 12.5 ppm [9] | percent effect (mortality or growth inhibition) at 200 ppm [10] | mortality at 12 ppm [11] | percent control (mortality, anti-feedancy or growth inhibition) at 12.5 ppm [12] | mortality at 200 ppm [13]

CCSc1cc(Br)cnc1-c1nc2cc(C(F)(F)F)n(C)c(=O)c2n1C [Compound A20, 2-(5-bromo-3-ethylsulfanyl-2-pyridyl)-3,5-dimethyl-6-(trifluoromethyl)imidazo[4,5-c]pyridin-4-one]
≥ 80%: mortality at 200 ppm [14] | mortality at 200 ppm [4] | mortality at 200 ppm [13]

From US10450311B2, “Pesticidally active heterocyclic derivatives with sulphur containing substituents” (Syngenta Participations AG, priority 2014, dated 2019)
